In patent publication EP3658131B1, “COMPOSITION FOR THE TREATMENT OF BACTERIAL VAGINOSIS” (Farma-Derma S.R.L., priority 2017, dated 2019):

What was measured:
Assay type in all cases: cell-based
[1] = system: Lactobacillus Acidophilus ATCCC 4356; assay: Survival/growth of lactobacilli after incubation with the mixtures (Test 2); conditions: 4 hours at 37°C
Description: (§1) 3 different mixtures of substances were prepared whose composition is described below: − MD(5mg) + AL(90%,11mg) [formula] − DQC(8mg) [formula] − DQC(8mg) + MD(5mg) + AL(90%,11mg) [formula]
(§2) To evaluate the antibacterial efficacy of the ingredients in the three compositions described above, the pure raw materials directly dissolved in the culture medium were tested. Aliquots of the 3 mixtures were prepared for each of the bacterial strains being evaluated. Each mixture was placed in a receptacle containing a suitable volume of a peptone water solution with pH 5.5 having a concentration of the bacterial strain equal to at least 10^5 CFU/ml.
(§3) Each container was placed in incubation at 37°C for 4 hours to promote the dissolution and the action of the ingredients. A negative control was prepared for each strain i.e. a solution without the presence of the substances being tested, which is treated in the same experimental conditions as the receptacles containing the mixtures being tested.
(§4) At the end of the incubation period the contents of each container were neutralised and seeded in a suitable culture medium, the micro-organisms that had grown were counted. Each seeding was performed in triplicate.

[2] = system: Gardnerella vaginalis ATCC 11418 + Lactobacillus Acidophilus ATCCC 4356; assay: Survival/growth of lactobacilli in metabolic competition with a pathogenic strain (Test 2); conditions: for Reduction in microbial load with respect to the negative control: values only refer to the lactobacilli, negative value = growth
Description: The selectivity of the compostion is verified by evaluating the survival ability of the Lactobacillus Acidophilus in the presence and absence of another bacterial strain in metabolic competition.
as §1, §2, §3, §4

[3] = system: Staphylococcus aureus ATCC 6538; assay: Reduction of microbial load after incubation with the mixtures (Test 2); conditions: 4 hours at 37°C
Description: as §1, §2, §3, §4

[4] = system: Gardnerella vaginalis ATCC 11418; assay: as above; conditions: 4 hours at 37°C
Description: as §1, §2, §3, §4

[5] = system: Prevotella loescheii ATCC 15930; assay: as above; conditions: 4 hours at 37°C
Description: as §1, §2, §3, §4

[6] = system: Escherichia coli ATCC 8739; assay: as above; conditions: 4 hours at 37°C
Description: as §1, §2, §3, §4

[7] = peptone water pH 5.5, at least 10^5 CFU/ml, mean of 3 replicates

Structure (SMILES): Cc1cc(N)c2ccccc2[n+]1CCCCCCCCCC[n+]1c(C)cc(N)c2ccccc21 [DQC, dequalinium chloride]
- Microbial load [1, 7]: 5,267 CFU/ml
- Reduction in microbial load with respect to the negative control ([1]; peptone water pH 5.5, negative value = growth): 96.18%
- Microbial load ([2]; values only refer to the lactobacilli (selective media), 4 hours at 37°C, pH 5.5, mean of 3 replicates): 1,400 CFU/ml
- Reduction in microbial load with respect to the negative control [2]: 60.00%
- Reduction in microbial load with respect to the negative control ([2]; listed as dequalinium): 60.00%
- Reduction in microbial load with respect to the negative control ([3]; peptone water pH 5.5): 60.00%
- Microbial load [3, 7]: 14,267 CFU/ml
- Reduction in microbial load with respect to the negative control ([4]; peptone water pH 5.5): 74.31%
- Microbial load [4, 7]: 4,205 CFU/ml
- Reduction in microbial load with respect to the negative control ([5]; peptone water pH 5.5): 90.56%
- Microbial load [5, 7]: 3,367 CFU/ml
- Reduction in microbial load with respect to the negative control ([6]; peptone water pH 5.5): 50.60%
- Microbial load [6, 7]: 1,037,400 CFU/ml
